ChEMBL document CHEMBL4411344, “Synthesis and biological evaluation of new long-chain squaramides as anti-chagasic agents in the BALB/c mouse model” (Bioorg Med Chem, 2019)
The source made the active and inactive calls. No cut-off for these calls is given here.

Experiments:
[1] = Hepatotoxicity in Balb/c mouse infected with Trypanosoma cruzi MHOM/Pe/2011/Arequipa DTU 5 trypomastigotes assessed as increase in ratio of serum AST to GOT level at 20 mg/kg, po once daily for 5 consecutive days starting from day 75 post infection measured on day 127 post infection relative to control; type: toxicity, organism-based; conditions: in vivo
[2] = Cardiotoxicity in Balb/c mouse infected with Trypanosoma cruzi MHOM/Pe/2011/Arequipa DTU 5 trypomastigotes assessed as decrease in serum LDH level at 20 mg/kg, po once daily for 5 consecutive days starting from day 75 post infection measured on day 81 post infection relative to control; type: toxicity, organism-based; conditions: in vivo
[3] = Cardiotoxicity in Balb/c mouse infected with Trypanosoma cruzi MHOM/Pe/2011/Arequipa DTU 5 trypomastigotes assessed as decrease in serum LDH level at 20 mg/kg, po once daily for 5 consecutive days starting from day 75 post infection measured on day 127 post infection relative to control; type: toxicity, organism-based; conditions: in vivo
[4] = Hepatotoxicity in Balb/c mouse infected with Trypanosoma cruzi MHOM/Pe/2011/Arequipa DTU 5 trypomastigotes assessed as increase in total bilirubin level at 20 mg/kg, po once daily for 5 consecutive days starting from day 10 post infection measured on day 127 post infection by biochemical analysis relative to control; type: toxicity, organism-based; conditions: in vivo
[5] = Hepatotoxicity in Balb/c mouse infected with Trypanosoma cruzi MHOM/Pe/2011/Arequipa DTU 5 trypomastigotes assessed as increase in total bilirubin level at 20 mg/kg, po once daily for 5 consecutive days starting from day 10 post infection measured on day 16 post infection relative to control; type: toxicity, organism-based; conditions: in vivo
Trypanosoma cruzi [6] = experiment: Antitrypanosomal activity against Trypanosoma cruzi MHOM/Pe/2011/Arequipa DTU 5 epimastigotes assessed as effect on parasite glycolytic pathway by measuring decrease in pyruvate excretion at IC25 after 72 hrs by 1H NMR method; type: functional; parameters: scale not given: the % may be the effect or the level left
Trypanosoma cruzi [7] = experiment: Antitrypanosomal activity against Trypanosoma cruzi MHOM/Pe/2011/Arequipa DTU 5 epimastigotes assessed as effect on parasite glycolytic pathway by measuring decrease in ethanol excretion at IC25 after 72 hrs by 1H NMR method; type: functional, organism-based
Trypanosoma cruzi [8] = experiment: Antitrypanosomal activity against Trypanosoma cruzi MHOM/Pe/2011/Arequipa DTU 5 epimastigotes assessed as effect on parasite glycolytic pathway by measuring decrease in acetate excretion at IC25 after 72 hrs by 1H NMR method; type: functional, organism-based
Trypanosoma cruzi [9] = experiment: Antitrypanosomal activity against Trypanosoma cruzi MHOM/Pe/2011/Arequipa DTU 5 epimastigotes assessed as effect on parasite glycolytic pathway by measuring increase in L-alanine excretion at IC25 after 72 hrs by 1H NMR method; type: functional, organism-based
Trypanosoma cruzi [10] = experiment: Antitrypanosomal activity against Trypanosoma cruzi MHOM/Pe/2011/Arequipa DTU 5 epimastigotes assessed as effect on parasite glycolytic pathway by measuring increase in acetate excretion at IC25 after 72 hrs by 1H NMR method; type: functional, organism-based
Trypanosoma cruzi [11] = experiment: Antitrypanosomal activity against Trypanosoma cruzi MHOM/Pe/2011/Arequipa DTU 5 epimastigotes assessed as effect on parasite glycolytic pathway by measuring increase in pyruvate excretion at IC25 after 72 hrs by 1H NMR method; type: functional, organism-based

Q: What does the source list for `O=C(Cn1ccnc1[N+](=O)[O-])NCc1ccccc1` [BENZNIDAZOLE]?
A: Activity [1]: 10 to 20 U/L; Activity [2]: 20 to 30 U/L; Activity [3]: 10 to 20 U/L; Activity [4]: 10%; Activity [5]: 20 to 30 mg/dL

Q: For `CCCCCCNc1c(N(C)CCCN(C)C)c(=O)c1=O`, which Activity (Trypanosoma cruzi [6]) is on record?
A: Its Activity is 30%.

Q: And the Activity (Trypanosoma cruzi [7])?
A: The Activity was “Active”.

Q: And the Activity (Trypanosoma cruzi [8])?
A: Its Activity is “Active”.

Q: What does the source list for `CCCCCCCCCCCCCCCCNc1c(N(C)CCCN(C)C)c(=O)c1=O`?
A: Activity (Trypanosoma cruzi [9]): Active; Activity (Trypanosoma cruzi [10]): Active; Activity (Trypanosoma cruzi [11]): Active
